Laboratory results from US11554171B2, “Compounds and methods for the targeted degradation of bromodomain-containing proteins” (Arvinas Operations, Inc., priority 2015, dated 2023).

Test system: c-myc in 22RV-1 cells
Experiment: Human c-myc ELISA assay
Format: cell-based
Conditions: Homo sapiens; for Emax: 22Rv1, 18 h, read-out: Degradation of BRD4: Maximum inhibition (%) c-Myc ELISA in 22RV1 cells; for DC50: 22Rv1, read-out: Degradation of BRD4: DC50 (uM) c-Myc ELISA in 22RV1 cells
In short: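 c-myc levels measured by ELISA in RIPA lysates of 22RV-1 cells, calibrated with a 333-0 pg/ml standard curve. Lysates came from cells exposed for 18 h to an 8-point, 1:3 dose series starting at 300 nM or 1 μM final in 0.1% DMSO. Suppression potency given as DC50.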

Row | SMILES | DC50 [µM] | Emax [%]
1 | Cc1sc2c(c1C)C(c1ccc(Cl)cc1)=N[C@@H](CC(=O)NCCOCCCOCC(=O)N[C@H](C(=O)N1C[C@H](O)C[C@H]1C(=O)NCc1ccc(Cl)cc1)C(C)(C)C)c1nnc(C)n1-2 [Example 76] | 0.1 to 1 | 58.6
2 | Cc1ncsc1-c1ccc(CNC(=O)[C@@H]2C[C@@H](O)CN2C(=O)[C@@H](NC(=O)COCCn2cc(-c3ccc([C@@H](C)NC(=O)C[C@@H]4N=C(c5ccc(Cl)cc5)c5c(sc(C)c5C)-n5c(C)nnc54)cc3)cn2)C(C)(C)C)cc1 [Example 78] | 0.1 to 1 | 86.7
3 | Cc1ncsc1-c1ccc(CNC(=O)[C@@H]2C[C@@H](O)CN2C(=O)[C@@H](NC(=O)COCCN2CCC(NC(=O)C[C@@H]3N=C(c4ccc(Cl)cc4)c4c(sc(C)c4C)-n4c(C)nnc43)CC2)C(C)(C)C)cc1 [Example 79] | > 1 | 50.8
4 | Cc1ncsc1-c1ccc(CNC(=O)[C@@H]2C[C@@H](O)CN2C(=O)[C@@H](NC(=O)Cc2ccc(OCCNC(=O)C[C@@H]3N=C(c4ccc(Cl)cc4)c4c(sc(C)c4C)-n4c(C)nnc43)cc2)C(C)(C)C)cc1 [Example 80, (2S,4R)-1-[(2S)-2-{2-[4-(2-{2-[(9S)-7-(4-chlorophenyl)-4,5,13-trimethyl-3-thia-1,8,11,12-tetraazatricyclo[8.3.0.0^2,^6]trideca-2(6),4,7,10,12-pentaen-9-yl]acetamido}ethoxy)phenyl]acetamido}-3,3-dimethylbutanoyl]-4-hydroxy-N-{[4-(4-methyl-1,3-thiazol-5-yl)phenyl]methyl}pyrrolidine-2-carboxamide] | 0.01 to 0.1 | 97.5
5 | Cc1ncsc1-c1ccc(CNC(=O)[C@@H]2C[C@@H](O)CN2C(=O)[C@@H](NC(=O)COCCOc2cccc(NC(=O)C[C@@H]3N=C(c4ccc(Cl)cc4)c4c(sc(C)c4C)-n4c(C)nnc43)c2)C(C)(C)C)cc1 [Example 81] | 0.01 to 0.1 | 99
6 | Cc1ncsc1-c1ccc(CNC(=O)[C@@H]2C[C@@H](O)CN2C(=O)[C@@H](NC(=O)COCCCCCCNC(=O)C[C@@H]2N=C(c3ccc(Cl)cc3)c3c(sc(C)c3C)-n3c(C)nnc32)C(C)(C)C)cc1 [Example 82] | 0.01 to 0.1 | 100
7 | Cc1ncsc1-c1ccc(CNC(=O)[C@@H]2C[C@@H](O)CN2C(=O)[C@@H](NC(=O)COCCOCCOCCOc2ccc3c(c2)c2c(C(N)=O)cc(-c4c(C)noc4C)cc2n3Cc2ccccc2)C(C)(C)C)cc1 [Example 83] | 0.01 to 0.1 | 98
8 | Cc1ncsc1-c1ccc(CNC(=O)[C@@H]2C[C@@H](O)CN2C(=O)[C@@H](NC(=O)CCc2cccc(OCCNC(=O)C[C@@H]3N=C(c4ccc(Cl)cc4)c4c(sc(C)c4C)-n4c(C)nnc43)c2)C(C)(C)C)cc1 [Example 84] | < 0.01 | 100
9 | Cc1ncsc1-c1ccc([C@H](C)NC(=O)[C@@H]2C[C@@H](O)CN2C(=O)[C@@H](NC(=O)CCc2cccc(OCCNC(=O)C[C@@H]3N=C(c4ccc(Cl)cc4)c4c(sc(C)c4C)-n4c(C)nnc43)c2)C(C)(C)C)cc1 [Example 85] | < 0.01 | 100
10 | Cc1ncsc1-c1ccc(CNC(=O)[C@@H]2C[C@@H](O)CN2C(=O)[C@@H](NC(=O)COCCn2cc(-c3ccc([C@H](C)NC(=O)C[C@@H]4N=C(c5ccc(Cl)cc5)c5c(sc(C)c5C)-n5c(C)nnc54)cc3)cn2)C(C)(C)C)cc1 [Example 86] | 0.1 to 1 | 80
11 | Cc1ncsc1-c1ccc(CNC(=O)[C@@H]2C[C@@H](O)CN2C(=O)[C@@H](NC(=O)COc2ccccc2C(=O)N2CC[C@H](NC(=O)C[C@@H]3N=C(c4ccc(Cl)cc4)c4c(sc(C)c4C)-n4c(C)nnc43)C2)C(C)(C)C)cc1 [Example 87] | 0.01 to 0.1 | 96.4
12 | Cc1ncsc1-c1ccc(CNC(=O)[C@@H]2C[C@@H](O)CN2C(=O)[C@@H](NC(=O)COCCC(=O)N2CC[C@H](NC(=O)C[C@@H]3N=C(c4ccc(Cl)cc4)c4c(sc(C)c4C)-n4c(C)nnc43)C2)C(C)(C)C)cc1 [Example 88] | 0.1 to 1 | 85.9
13 | Cc1ncsc1-c1ccc(CNC(=O)C2C[C@@H](O)CN2C(=O)[C@@H](NC(=O)COCCOCCOCCOCCOc2ccc3c(c2)c2c(C(N)=O)cc(-c4c(C)noc4C)cc2n3Cc2ccccc2)C(C)(C)C)cc1 (stereo partly shown) [Example 89, 9-Benzyl-2-(dimethyl-1,2-oxazol-4-yl)-6{[1-({1-[4-hydroxy-2-({[4-(4-methyl-1,3-thiazol-5-yl)phenyl]methyl}carbamoyl)pyrrolidin-1-yl]-3,3-dimethyl-1-oxobutan-2-yl}carbamoyl)-2,5,8,11-tetraoxatridecan-13-yl]oxy}-9H-carbazole-4-carboxamide] | 0.01 to 0.1 | 99.5
14 | Cc1ncsc1-c1ccc(CNC(=O)[C@@H]2C[C@@H](O)CN2C(=O)C(c2cc(OCCCCCNC(=O)C[C@@H]3N=C(c4ccc(Cl)cc4)c4c(sc(C)c4C)-n4c(C)nnc43)no2)C(C)C)cc1 (stereo partly shown) [Example 90] | < 0.01 | 100
15 | Cc1ncsc1-c1ccc(CNC(=O)[C@@H]2C[C@@H](O)CN2C(=O)[C@@H](NC(=O)c2ccn(CCOCCNC(=O)C[C@@H]3N=C(c4ccc(Cl)cc4)c4c(sc(C)c4C)-n4c(C)nnc43)n2)C(C)(C)C)cc1 [Example 91] | > 1 | < 5
16 | Cc1ncsc1-c1ccc(CNC(=O)[C@@H]2C[C@@H](O)CN2C(=O)[C@@H](NC(=O)Cc2ccc(OCCNC(=O)C[C@@H]3N=C(c4ccc(Cl)cc4)c4c(sc(C)c4C)-n4c(C)nnc43)cn2)C(C)(C)C)cc1 [Example 92] | 0.1 to 1 | 91.1
17 | Cc1ncsc1-c1ccc(CNC(=O)[C@@H]2C[C@@H](O)CN2C(=O)[C@@H](NC(=O)Cc2ccc(N3CC[C@H](NC(=O)C[C@@H]4N=C(c5ccc(Cl)cc5)c5c(sc(C)c5C)-n5c(C)nnc54)C3)cn2)C(C)(C)C)cc1 [Example 93] | 0.1 to 1 | 74.2
18 | Cc1ncsc1-c1ccc(CNC(=O)C2C[C@@H](O)CN2C(=O)[C@@H](NC(=O)COCCCOCCOc2cccc(NC(=O)C[C@@H]3N=C(c4ccc(Cl)cc4)c4c(sc(C)c4C)-n4c(C)nnc43)c2)C(C)(C)C)cc1 (stereo partly shown) [Example 94] | < 0.01 | 98.5
19 | Cc1ncsc1-c1ccc(CNC(=O)[C@@H]2C[C@@H](O)CN2C(=O)[C@@H](NC(=O)COCc2ccc(Oc3cccc(NC(=O)C[C@@H]4N=C(c5ccc(Cl)cc5)c5c(sc(C)c5C)-n5c(C)nnc54)c3)cc2)C(C)(C)C)cc1 [Example 95] | < 0.01 | 99.5

More lines, main results first:

Row | DC50 [µM] | SMILES | Emax [%]
20 | 0.1 to 1 | Cc1ncsc1-c1ccc(CNC(=O)C2C[C@@H](O)CN2C(=O)[C@@H](NC(=O)c2cn3cc(OCCNC(=O)C[C@@H]4N=C(c5ccc(Cl)cc5)c5c(sc(C)c5C)-n5c(C)nnc54)ccc3n2)C(C)(C)C)cc1 (stereo partly shown) [Example 96] | 67.9
21 | < 0.01 | Cc1ncsc1-c1ccc(CNC(=O)[C@@H]2C[C@@H](O)CN2C(=O)[C@@H](NC(=O)Cc2ccc3cc(CCNC(=O)C[C@@H]4N=C(c5ccc(Cl)cc5)c5c(sc(C)c5C)-n5c(C)nnc54)oc3c2)C(C)(C)C)cc1 [Example 97] | 100
22 | 0.01 to 0.1 | Cc1ncsc1-c1ccc(CNC(=O)[C@@H]2C[C@@H](O)CN2C(=O)[C@@H](NC(=O)COCCOCCOCCNC(=O)CC2N=C(c3ccc(Cl)cc3)c3c(sc(C)c3C)-n3c(C)nnc32)C(C)(C)C)cc1 (stereo partly shown) [Example 98] | 100
23 | 0.1 to 1 | Cc1ncsc1-c1ccc(CNC(=O)[C@@H]2C[C@@H](O)CN2C(=O)[C@@H](NC(=O)c2cn3ccc(OCCCNC(=O)C[C@@H]4N=C(c5ccc(Cl)cc5)c5c(sc(C)c5C)-n5c(C)nnc54)cc3n2)C(C)(C)C)cc1 [Example 99] | 67
24 | 0.01 to 0.1 | Cc1ncsc1-c1ccc(CNC(=O)[C@@H]2C[C@@H](O)CN2C(=O)[C@@H](NC(=O)COCCCSCCNC(=O)C[C@@H]2N=C(c3ccc(Cl)cc3)c3c(sc(C)c3C)-n3c(C)nnc32)C(C)(C)C)cc1 [Example 100] | 99
25 | 0.1 to 1 | Cc1ncsc1-c1ccc(CNC(=O)[C@@H]2C[C@@H](O)CN2C(=O)[C@@H](NC(=O)COCCCS(=O)(=O)CCNC(=O)C[C@@H]2N=C(c3ccc(Cl)cc3)c3c(sc(C)c3C)-n3c(C)nnc32)C(C)(C)C)cc1 [Example 101] | 88.3
26 | > 1 | Cc1ncsc1-c1ccc(CNC(=O)[C@@H]2C[C@@H](O)CN2C(=O)[C@@H](NC(=O)CCN2CCN(CCCNC(=O)C[C@@H]3N=C(c4ccc(Cl)cc4)c4c(sc(C)c4C)-n4c(C)nnc43)CC2)C(C)(C)C)cc1 [Example 102] | 34.5
27 | 0.1 to 1 | Cc1ncsc1-c1ccc(CNC(=O)[C@@H]2C[C@@H](O)CN2C(=O)[C@@H](NC(=O)CCN2CCN(CCNC(=O)C[C@@H]3N=C(c4ccc(Cl)cc4)c4c(sc(C)c4C)-n4c(C)nnc43)CC2)C(C)(C)C)cc1 [Example 103] | 62.5
28 | > 1 | Cc1ncsc1-c1ccc(CNC(=O)[C@@H]2C[C@@H](O)CN2C(=O)[C@@H](NC(=O)COCCOCCOCCNC(=O)C[C@H]2N=C(c3ccc(Cl)cc3)c3c(sc(C)c3C)-n3c(C)nnc32)C(C)(C)C)cc1 [Example 104] | < 5
29 | 0.01 to 0.1 | Cc1ncsc1-c1ccc(CNC(=O)[C@@H]2C[C@@H](O)CN2C(=O)[C@@H](NC(=O)COCCCOCCNC(=O)CC2N=C(c3ccc(Cl)cc3)c3c(sc(C)c3C)-n3c(C)nnc32)C(C)(C)C)cc1 (stereo partly shown) [Example 105] | 97
30 | > 1 | Cc1ncsc1-c1ccc(CNC(=O)[C@@H]2C[C@@H](O)CN2C(=O)[C@@H](NC(=O)COCCCOCCNC(=O)C[C@H]2N=C(c3ccc(Cl)cc3)c3c(sc(C)c3C)-n3c(C)nnc32)C(C)(C)C)cc1 [Example 106] | < 5
31 | 0.01 to 0.1 | Cc1ncsc1-c1ccc(CNC(=O)C2C[C@@H](O)CN2C(=O)[C@@H](NC(=O)COc2ccccc2OCCCNC(=O)C[C@@H]2N=C(c3ccc(Cl)cc3)c3c(sc(C)c3C)-n3c(C)nnc32)C(C)(C)C)cc1 (stereo partly shown) [Example 107] | 86.6
32 | 0.1 to 1 | Cc1ncsc1-c1ccc([C@H](C)NC(=O)[C@@H]2C[C@@H](O)CN2C(=O)[C@@H](NC(=O)COCCOCCCOc2ccc([C@H](C)NC(=O)CC3N=C(c4ccc(Cl)cc4)c4c(sc(C)c4C)-n4c(C)nnc43)cc2)C(C)(C)C)cc1 (stereo partly shown) [Example 108] | 95.4
